According to publication PMC7311426, “An amphipathic peptide with antibiotic activity against multidrug-resistant Gram-negative bacteria” (Nature Communications, 2020):
Values after ≈ are worked out from the molar mass of the structure shown. Residues, ends and D or L forms follow the SMILES beside them.

Tests used:
Assay in all cases: microbe, parasite or virus in culture
P. aeruginosa = test system: P. aeruginosa
In short: (§1)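 Broth microdilution in MHB, 2-fold 12-point series from 128 or 64 down to 0.06 or 0.03 μg mL^−1, 5 × 10^5 CFU mL^−1. Extra runs in CAMHB per CLSI and in MHB with 1% agarose; n ≥ 6.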

S. aureus = details: BMD; range over strains and media
In short: as §1

S. enterica Typhi = details: Typhi
In short: as §1

[1] = test system: A. baumannii clinical isolates; details: clinical isolates
In short: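 MIC90 from CLSI broth microdilution (M07-A9) in two clinical-isolate panels. US panel (331 isolates, 2010-2012): AA139 diluted in 0.01% acetic acid/0.1% BSA. Worldwide panel (445 isolates, 2011-2013, four regions): CAMHB, with 0.002% Tween 80 added for AA139 and polymyxin B.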

## CC(C)[C@@H]1NC(=O)[C@H](Cc2ccc(O)cc2)NC(=O)[C@H](Cc2c[nH]c3ccccc23)NC(=O)[C@@H](NC(=O)[C@H](Cc2ccccc2)NC(=O)CN)CSSC[C@@H](C(=O)N[C@@H](CC(N)=O)C(=O)O)NC(=O)[C@H](CCCNC(=N)N)NC(=O)[C@H](CCCNC(=N)N)NC(=O)[C@H](Cc2ccc(O)cc2)NC(=O)[C@@H]2CSSC[C@H](NC1=O)C(=O)N[C@@H](C)C(=O)N[C@@H](CCCNC(=N)N)C(=O)N[C@@H](CCCNC(=N)N)C(=O)N[C@@H](CC(N)=O)C(=O)NCC(=O)N[C@@H](C)C(=O)N[C@@H](CCCNC(=N)N)C(=O)N[C@@H](C(C)C)C(=O)N2 [AA139] (HELM PEPTIDE1{G.F.C.W.Y.V.C.A.R.R.N.G.A.R.V.C.Y.R.R.C.N}$PEPTIDE1,PEPTIDE1,3:R3-20:R3|PEPTIDE1,PEPTIDE1,7:R3-16:R3$$$V2.0)
P. aeruginosa; P. aeruginosa ATCC 27853 spontaneous mutant, AA139 selection 8X, plate 1, colony 1, drug-free passage 1
  MIC, broth microdilution: 1, 1 µg/mL
P. aeruginosa; P. aeruginosa ATCC 27853 spontaneous mutant, AA139 selection 8X, plate 1, colony 1, drug-free passage 5
  MIC, broth microdilution: 1, 1 µg/mL
P. aeruginosa; P. aeruginosa ATCC 27853 spontaneous mutant, AA139 selection 8X, plate 1, colony 2, drug-free passage 1
  MIC, broth microdilution: 1 µg/mL (≈ 0.392 µM)
P. aeruginosa; P. aeruginosa ATCC 27853 spontaneous mutant, AA139 selection 8X, plate 1, colony 2, drug-free passage 5
  MIC, broth microdilution: 2 µg/mL (≈ 0.784 µM)
P. aeruginosa; P. aeruginosa ATCC 27853 spontaneous mutant, AA139 selection 8X, plate 1, colony 3, drug-free passage 1
  MIC, broth microdilution: 1, 1 µg/mL
P. aeruginosa; P. aeruginosa ATCC 27853 spontaneous mutant, AA139 selection 8X, plate 1, colony 3, drug-free passage 5
  MIC, broth microdilution: 1, 1 µg/mL
P. aeruginosa; P. aeruginosa ATCC 27853 spontaneous mutant, AA139 selection 8X, plate 1, colony 4, drug-free passage 1
  MIC, broth microdilution: 1, 1 µg/mL
P. aeruginosa; P. aeruginosa ATCC 27853 spontaneous mutant, AA139 selection 8X, plate 1, colony 4, drug-free passage 5
  MIC, broth microdilution: 1, 1 µg/mL
P. aeruginosa; P. aeruginosa ATCC 27853 spontaneous mutant, AA139 selection 8X, plate 1, colony 5, drug-free passage 1
  MIC, broth microdilution: 1, 1 µg/mL
P. aeruginosa; P. aeruginosa ATCC 27853 spontaneous mutant, AA139 selection 8X, plate 1, colony 5, drug-free passage 5
  MIC, broth microdilution: 1, 1 µg/mL
P. aeruginosa; P. aeruginosa FADDI-070, MDR, PmxR, MHB/CAMHB, mode of 6 replicates
  BMD MIC: 2 µg/mL
P. aeruginosa; P. aeruginosa UNT 138-1 spontaneous mutant, AA139 selection 4X, plate 1, colony 1, drug-free passage 1
  MIC, broth microdilution: 2, 2 µg/mL
P. aeruginosa; P. aeruginosa UNT 138-1 spontaneous mutant, AA139 selection 4X, plate 1, colony 1, drug-free passage 5
  MIC, broth microdilution: 2, 2 µg/mL
P. aeruginosa; P. aeruginosa UNT 138-1 spontaneous mutant, AA139 selection 4X, plate 1, colony 2, drug-free passage 1
  MIC, broth microdilution: 1, 1 µg/mL
P. aeruginosa; P. aeruginosa UNT 138-1 spontaneous mutant, AA139 selection 4X, plate 1, colony 2, drug-free passage 5
  MIC, broth microdilution: 1, 1 µg/mL
P. aeruginosa; P. aeruginosa UNT 138-1 spontaneous mutant, AA139 selection 4X, plate 1, colony 3, drug-free passage 1
  MIC, broth microdilution: 1, 1 µg/mL
P. aeruginosa; P. aeruginosa UNT 138-1 spontaneous mutant, AA139 selection 4X, plate 1, colony 3, drug-free passage 5
  MIC, broth microdilution: 1, 1 µg/mL
P. aeruginosa; P. aeruginosa UNT 138-1 spontaneous mutant, AA139 selection 4X, plate 1, colony 4, drug-free passage 1
  MIC, broth microdilution: 1, 1 µg/mL
P. aeruginosa; P. aeruginosa UNT 138-1 spontaneous mutant, AA139 selection 4X, plate 1, colony 4, drug-free passage 5
  MIC, broth microdilution: 1, 1 µg/mL
P. aeruginosa; P. aeruginosa UNT 138-1 spontaneous mutant, AA139 selection 4X, plate 1, colony 5, drug-free passage 1
  MIC, broth microdilution: 2 µg/mL (≈ 0.784 µM)
P. aeruginosa; P. aeruginosa UNT 138-1 spontaneous mutant, AA139 selection 4X, plate 1, colony 5, drug-free passage 5
  MIC, broth microdilution: 1 µg/mL (≈ 0.392 µM)
P. aeruginosa; P. aeruginosa UNT 138-1 spontaneous mutant, AA139 selection 4X, plate 1, colony 6, drug-free passage 1
  MIC, broth microdilution: 2 µg/mL (≈ 0.784 µM)
P. aeruginosa; P. aeruginosa UNT 138-1 spontaneous mutant, AA139 selection 4X, plate 1, colony 6, drug-free passage 5
  MIC, broth microdilution: 1 µg/mL (≈ 0.392 µM)
P. aeruginosa; P. aeruginosa UNT 138-1 spontaneous mutant, AA139 selection 4X, plate 1, colony 7, drug-free passage 1
  MIC, broth microdilution: 2 µg/mL (≈ 0.784 µM)
P. aeruginosa; P. aeruginosa UNT 138-1 spontaneous mutant, AA139 selection 4X, plate 1, colony 7, drug-free passage 5
  MIC, broth microdilution: 1 µg/mL (≈ 0.392 µM)
P. aeruginosa; P. aeruginosa UNT 138-1 spontaneous mutant, AA139 selection 4X, plate 2, colony 1, drug-free passage 1
  MIC, broth microdilution: 2, 2 µg/mL
P. aeruginosa; P. aeruginosa UNT 138-1 spontaneous mutant, AA139 selection 4X, plate 2, colony 1, drug-free passage 5
  MIC, broth microdilution: 2, 2 µg/mL
P. aeruginosa; P. aeruginosa UNT 138-1 spontaneous mutant, AA139 selection 4X, plate 2, colony 2, drug-free passage 1
  MIC, broth microdilution: 2 µg/mL (≈ 0.784 µM)
P. aeruginosa; P. aeruginosa UNT 138-1 spontaneous mutant, AA139 selection 4X, plate 2, colony 2, drug-free passage 5
  MIC, broth microdilution: 1 µg/mL (≈ 0.392 µM)
P. aeruginosa; P. aeruginosa UNT 138-1 spontaneous mutant, AA139 selection 4X, plate 2, colony 3, drug-free passage 1
  MIC, broth microdilution: 2, 2 µg/mL
P. aeruginosa; P. aeruginosa UNT 138-1 spontaneous mutant, AA139 selection 4X, plate 2, colony 3, drug-free passage 5
  MIC, broth microdilution: 2, 2 µg/mL
P. aeruginosa; P. aeruginosa UNT 138-1 spontaneous mutant, AA139 selection 4X, plate 2, colony 4, drug-free passage 1
  MIC, broth microdilution: 2 µg/mL (≈ 0.784 µM)
P. aeruginosa; P. aeruginosa UNT 138-1 spontaneous mutant, AA139 selection 4X, plate 2, colony 4, drug-free passage 5
  MIC, broth microdilution: 1 µg/mL (≈ 0.392 µM)
P. aeruginosa; P. aeruginosa UNT 138-1 spontaneous mutant, AA139 selection 4X, plate 2, colony 5, drug-free passage 1
  MIC, broth microdilution: 2 µg/mL (≈ 0.784 µM)
P. aeruginosa; P. aeruginosa UNT 138-1 spontaneous mutant, AA139 selection 4X, plate 2, colony 5, drug-free passage 5
  MIC, broth microdilution: 1 µg/mL (≈ 0.392 µM)
P. aeruginosa; P. aeruginosa UNT 138-1 spontaneous mutant, AA139 selection 4X, plate 2, colony 6, drug-free passage 1
  MIC, broth microdilution: 2 µg/mL (≈ 0.784 µM)
P. aeruginosa; P. aeruginosa UNT 138-1 spontaneous mutant, AA139 selection 4X, plate 2, colony 6, drug-free passage 5
  MIC, broth microdilution: 1 µg/mL (≈ 0.392 µM)
P. aeruginosa; P. aeruginosa UNT 138-1 spontaneous mutant, AA139 selection 4X, plate 2, colony 7, drug-free passage 1
  MIC, broth microdilution: 2 µg/mL (≈ 0.784 µM)
P. aeruginosa; P. aeruginosa UNT 138-1 spontaneous mutant, AA139 selection 4X, plate 2, colony 7, drug-free passage 5
  MIC, broth microdilution: 1 µg/mL (≈ 0.392 µM)
P. aeruginosa; P. aeruginosa UNT 138-1 spontaneous mutant, AA139 selection 8X, plate 1, colony 1, drug-free passage 1
  MIC, broth microdilution: 2 µg/mL (≈ 0.784 µM)
P. aeruginosa; P. aeruginosa UNT 138-1 spontaneous mutant, AA139 selection 8X, plate 1, colony 1, drug-free passage 5
  MIC, broth microdilution: 1 µg/mL (≈ 0.392 µM)
P. aeruginosa; P. aeruginosa UNT 138-1 spontaneous mutant, AA139 selection 8X, plate 1, colony 2, drug-free passage 1
  MIC, broth microdilution: 1, 1 µg/mL
P. aeruginosa; P. aeruginosa UNT 138-1 spontaneous mutant, AA139 selection 8X, plate 1, colony 2, drug-free passage 5
  MIC, broth microdilution: 1, 1 µg/mL
P. aeruginosa; P. aeruginosa UNT 138-1 spontaneous mutant, AA139 selection 8X, plate 1, colony 3, drug-free passage 1
  MIC, broth microdilution: 1, 1 µg/mL
P. aeruginosa; P. aeruginosa UNT 138-1 spontaneous mutant, AA139 selection 8X, plate 1, colony 3, drug-free passage 5
  MIC, broth microdilution: 1, 1 µg/mL
P. aeruginosa; P. aeruginosa UNT 138-1 spontaneous mutant, AA139 selection 8X, plate 1, colony 4, drug-free passage 1
  MIC, broth microdilution: 2, 2 µg/mL
P. aeruginosa; P. aeruginosa UNT 138-1 spontaneous mutant, AA139 selection 8X, plate 1, colony 4, drug-free passage 5
  MIC, broth microdilution: 2, 2 µg/mL
P. aeruginosa; P. aeruginosa UNT 138-1 spontaneous mutant, AA139 selection 8X, plate 1, colony 5, drug-free passage 1
  MIC, broth microdilution: 1 µg/mL (≈ 0.392 µM)
P. aeruginosa; P. aeruginosa UNT 138-1 spontaneous mutant, AA139 selection 8X, plate 1, colony 5, drug-free passage 5
  MIC, broth microdilution: 2 µg/mL (≈ 0.784 µM)
P. aeruginosa; P. aeruginosa UNT 138-1 spontaneous mutant, AA139 selection 8X, plate 2, colony 1, drug-free passage 1
  MIC, broth microdilution: 1, 1 µg/mL
P. aeruginosa; P. aeruginosa UNT 138-1 spontaneous mutant, AA139 selection 8X, plate 2, colony 1, drug-free passage 5
  MIC, broth microdilution: 1, 1 µg/mL
S. aureus
  MIC against Staphylococcus aureus: 32 to 64 µg/mL
S. enterica Typhi
  BMD MIC: 0.5 µg/mL
[1]
  MIC90 (A. baumannii): 2.0 µg/mL (≈ 0.784 µM)
  MIC against colistin-resistant isolates (did not surpass): ≤ 2 µg/mL
